Experimental data published in the supplement of paper PMC10307832.

How the values were obtained:
Experiment in all cases: relative viability (nuclei count vs DMSO), 5 days (fraction); higher = more cells survive
[1] = test system: NCI-H650
Procedure, shortened: (§1)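 Lung cancer cell lines in 1536-well plates got either a single drug or a fixed anchor-drug dose together with five library-drug doses (not always all listed) in √10 steps, by pin tool, on the day after seeding. Nuclei were counted after 5 days, and relative viability is the treated-to-vehicle ratio of nuclei counts. Values are medians of duplicate plates.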

[2] = test system: NCI-H23
Procedure, shortened: as §1

[3] = test system: NCI-H358
Procedure, shortened: as §1

[4] = test system: COR-L23
Procedure, shortened: as §1

[5] = test system: NCI-H2342
Procedure, shortened: as §1

[6] = test system: NCI-H441
Procedure, shortened: as §1

[7] = test system: A-427
Procedure, shortened: as §1

[8] = test system: NCI-H1975
Procedure, shortened: as §1

[9] = test system: SK-MES-1
Procedure, shortened: as §1

[10] = test system: BEN
Procedure, shortened: as §1

[11] = test system: NCI-H838
Procedure, shortened: as §1

[12] = test system: HCC-15
Procedure, shortened: as §1

[13] = test system: NCI-H1437
Procedure, shortened: as §1

[14] = test system: HCC-827
Procedure, shortened: as §1

[15] = test system: HCC-44
Procedure, shortened: as §1

[16] = test system: NCI-H596
Procedure, shortened: as §1

[17] = test system: EKVX
Procedure, shortened: as §1

[18] = test system: 201T
Procedure, shortened: as §1

[19] = test system: HARA
Procedure, shortened: as §1

[20] = test system: SW 900
Procedure, shortened: as §1

[21] = test system: NCI-H1650
Procedure, shortened: as §1

CC(=O)O[C@@]12CO[C@@H]1C[C@H](O)[C@@]1(C)C(=O)[C@H](O)C3=C(C)[C@@H](OC(=O)[C@H](O)[C@@H](NC(=O)OC(C)(C)C)c4ccccc4)C[C@@](O)([C@@H](OC(=O)c4ccccc4)[C@H]21)C3(C)C [Docetaxel] + O=C(CCCCCCC(=O)Nc1ccccc1)NO [Vorinostat] (partner 1 µM)
relative viability ([1]; first compound 0.0002 µM): 0.389 | relative viability ([1]; first compound 0.000632 µM): 0.326 | relative viability ([1]; first compound 0.002 µM): 0.262 | relative viability ([1]; first compound 0.006325 µM): 0.2 | relative viability ([1]; first compound 0.02 µM): 0.171 | relative viability ([2]; first compound 0.0002 µM): 0.55 | relative viability ([2]; first compound 0.000632 µM): 0.305 | relative viability ([2]; first compound 0.002 µM): 0.165 | relative viability ([2]; first compound 0.006325 µM): 0.155 | relative viability ([2]; first compound 0.02 µM): 0.0848 | relative viability ([3]; first compound 0.0002 µM): 0.625 | relative viability ([3]; first compound 0.000632 µM): 0.399 | relative viability ([3]; first compound 0.002 µM): 0.109 | relative viability ([3]; first compound 0.006325 µM): 0.112 | relative viability ([3]; first compound 0.02 µM): 0.0606 | relative viability ([4]; first compound 0.0002 µM): 0.492 | relative viability ([4]; first compound 0.000632 µM): 0.248 | relative viability ([4]; first compound 0.002 µM): 0.151 | relative viability ([4]; first compound 0.006325 µM): 0.154 | relative viability ([4]; first compound 0.02 µM): 0.0838 | relative viability ([5]; first compound 0.0002 µM): 0.625 | relative viability ([5]; first compound 0.000632 µM): 0.662 | relative viability ([5]; first compound 0.002 µM): 0.569 | relative viability ([5]; first compound 0.006325 µM): 0.445 | relative viability ([5]; first compound 0.02 µM): 0.475 | relative viability ([6]; first compound 0.0002 µM): 0.713 | relative viability ([6]; first compound 0.000632 µM): 0.53 | relative viability ([6]; first compound 0.002 µM): 0.223 | relative viability ([6]; first compound 0.006325 µM): 0.219 | relative viability ([6]; first compound 0.02 µM): 0.165 | relative viability ([7]; first compound 0.0002 µM): 0.824 | relative viability ([7]; first compound 0.000632 µM): 0.822 | relative viability ([7]; first compound 0.002 µM): 0.621 | relative viability ([7]; first compound 0.006325 µM): 0.36 | relative viability ([7]; first compound 0.02 µM): 0.27 | relative viability ([8]; first compound 0.0002 µM): 0.723 | relative viability ([8]; first compound 0.000632 µM): 0.378 | relative viability ([8]; first compound 0.002 µM): 0.283 | relative viability ([8]; first compound 0.006325 µM): 0.232 | relative viability ([8]; first compound 0.02 µM): 0.161 | relative viability ([9]; first compound 0.0002 µM): 1.15 | relative viability ([9]; first compound 0.000632 µM): 0.925 | relative viability ([9]; first compound 0.002 µM): 0.695 | relative viability ([9]; first compound 0.006325 µM): 0.267 | relative viability ([9]; first compound 0.02 µM): 0.212 | relative viability ([10]; first compound 0.0002 µM): 0.526 | relative viability ([10]; first compound 0.000632 µM): 0.526 | relative viability ([10]; first compound 0.002 µM): 0.337 | relative viability ([10]; first compound 0.006325 µM): 0.373 | relative viability ([10]; first compound 0.02 µM): 0.299 | relative viability ([11]; first compound 0.0002 µM): 0.623 | relative viability ([11]; first compound 0.000632 µM): 0.385 | relative viability ([11]; first compound 0.002 µM): 0.328 | relative viability ([11]; first compound 0.006325 µM): 0.208 | relative viability ([11]; first compound 0.02 µM): 0.16 | relative viability ([12]; first compound 0.0002 µM): 0.856 | relative viability ([12]; first compound 0.000632 µM): 0.574 | relative viability ([12]; first compound 0.006325 µM): 0.227 | relative viability ([12]; first compound 0.02 µM): 0.131 | relative viability ([13]; first compound 0.0002 µM): 0.838 | relative viability ([13]; first compound 0.000632 µM): 0.522 | relative viability ([13]; first compound 0.002 µM): 0.553 | relative viability ([13]; first compound 0.006325 µM): 0.275 | relative viability ([13]; first compound 0.02 µM): 0.185 | relative viability ([14]; first compound 0.0002 µM): 0.367 | relative viability ([14]; first compound 0.000632 µM): 0.903 | relative viability ([14]; first compound 0.002 µM): 0.528 | relative viability ([14]; first compound 0.006325 µM): 0.279 | relative viability ([14]; first compound 0.02 µM): 0.238 | relative viability ([15]; first compound 0.0002 µM): 0.994 | relative viability ([15]; first compound 0.000632 µM): 1.14 | relative viability ([15]; first compound 0.002 µM): 0.861 | relative viability ([15]; first compound 0.006325 µM): 0.515 | relative viability ([15]; first compound 0.02 µM): 0.493 | relative viability ([16]; first compound 0.0002 µM): 0.639 | relative viability ([16]; first compound 0.000632 µM): 0.46 | relative viability ([16]; first compound 0.002 µM): 0.393 | relative viability ([16]; first compound 0.006325 µM): 0.307 | relative viability ([16]; first compound 0.02 µM): 0.144 | relative viability ([17]; first compound 0.0002 µM): 0.638 | relative viability ([17]; first compound 0.000632 µM): 0.6 | relative viability ([17]; first compound 0.002 µM): 0.428 | relative viability ([17]; first compound 0.006325 µM): 0.29 | relative viability ([17]; first compound 0.02 µM): 0.229 | relative viability ([18]; first compound 0.0002 µM): 0.885 | relative viability ([18]; first compound 0.000632 µM): 0.932 | relative viability ([18]; first compound 0.002 µM): 0.516 | relative viability ([18]; first compound 0.006325 µM): 0.478 | relative viability ([18]; first compound 0.02 µM): 0.291 | relative viability ([19]; first compound 0.0002 µM): 0.5 | relative viability ([19]; first compound 0.000632 µM): 0.219 | relative viability ([19]; first compound 0.002 µM): 0.148 | relative viability ([19]; first compound 0.006325 µM): 0.215 | relative viability ([19]; first compound 0.02 µM): 0.0839 | relative viability ([20]; first compound 0.0002 µM): 0.523 | relative viability ([20]; first compound 0.000632 µM): 0.284 | relative viability ([20]; first compound 0.002 µM): 0.277 | relative viability ([20]; first compound 0.006325 µM): 0.203 | relative viability ([20]; first compound 0.02 µM): 0.235 | relative viability ([21]; first compound 0.0002 µM): 0.54 | relative viability ([21]; first compound 0.000632 µM): 0.499 | relative viability ([21]; first compound 0.002 µM): 0.226 | relative viability ([21]; first compound 0.006325 µM): 0.196 | relative viability ([21]; first compound 0.02 µM): 0.162
